Results from US12059462B2, “Composition containing influenza vaccine” (priority 2018, dated 2024).

How the values were obtained:
[1] = test system: LAH binding monoclonal antibody (#2, #4 and #5); assay: Binding capacity of antibody to LAH epitope, order of formalin treatment; settings: FIG. 15; H3N2 strain X31; formalin treatment after (Post-fix) or before (Pre-fix) the acidic treatment
[2] = test system: synthetic peptide (H3) corresponding to a portion (long alpha helix) of the stem portion; settings: mouse, in vivo, ip

Question: How did the “binding of the LAH binding monoclonal antibody to the vaccine” value [1] turn out when “membrane fusion-type H3N2 HA split vaccine: HA split vaccine of H3N2 influenza virus (strain X31) subjected to acidic treatment (pH 5.0), then formalin treatment” was run?
Answer: Its value is “more strongly than to the vaccine (Pre-fix)”.

Question: What about the “titer of the anti-LAH antibody in the sera” value [2] of the same substance?
Answer: The value was “higher titer of the anti-LAH antibody than the membrane fusion-type split vaccine (Pre-fix)”.
